In patent publication US8133998B2, “Bicyclic pyrimidine derivatives as calcium channel blockers” (Zalicus Pharmaceuticals, Ltd., priority 2007, dated 2012):

Key:
[1] = target: T1, human α1H T-type channels (Homo sapiens, UniProt O95180); test: T-type calcium channel block, whole cell patch clamp in HEK cells; format: cell-based; conditions: HEK cells stably expressing human α1H; measured at 1 μM drug; mainly non-inactivated protocol
T1 construct: expressed in transfected cells; host or cells: HEK 293
Description: (§1) T-type calcium channel blocking activity was assayed in human embryonic kidney cells, HEK 293, stably transfected with the T-type calcium channel subunits. Briefly, cells were cultured in Dulbecco's modified eagle medium (DMEM) supplemented with 10% fetal bovine serum, 200 U/ml penicillin and 0.2 mg/ml streptomycin at 37° C. with 5% CO2. At 85% confluency cells were split with 0.25% trypsin/1 mM EDTA and plated at 10% confluency on glass coverslips. At 12 hours the medium was replaced and the cells stably transfected using a standard calcium phosphate protocol and the appropriate calcium channel cDNA's. Fresh DMEM was supplied and the cells transferred to 28° C./5% CO2. Cells were incubated for 1 to 2 days prior to whole cell recording.
(§2) Standard patch-clamp techniques were employed to identify blockers of T-type currents. Briefly, previously described HEK cell lines stably expressing human α1G, α1H and α1I T-type channels were used for all the recordings (passage #: 4-20, 37° C., 5% CO2). Whole cell patch clamp experiments were performed using an Axopatch 200B amplifier (Axon Instruments, Burlingame, Calif.) linked to a personal computer equipped with pCLAMP software. Data were analyzed using Clampfit (Axon Instruments) and SigmaPlot 4.0 (Jandel Scientific). To obtain T-type currents, plastic dishes containing semi-confluent cells were positioned on the stage of a ZEISS AXIOVERT S100 microscope after replacing the culture medium with external solution (see below). Whole-cell patches were obtained using pipettes (borosilicate glass with filament, O.D.: 1.5 mm, I.D.: 0.86 mm, 10 cm length), fabricated on a SUTTER P-97 puller with resistance values of ˜5 MΩ (see below for internal solution).
(§3) In the non-inactivating protocol, the holding potential is set at −110 mV and with a pre-pulse at −100 mV for 1 second prior to the test pulse at −40 mV for 50 ms. In the inactivation protocol, the pre-pulse is at approximately −85 mV for 1 second, which inactivates about 15% of the T-type channels.
(§4) Test compounds were dissolved in external solution, 0.1-0.01% DMSO. After ˜10 min rest, they were applied by gravity close to the cell using a WPI microfil tubing. The “non-inactivated” pre-pulse was used to examine the resting block of a compound. The “inactivated” protocol was employed to study voltage-dependent block. However, the initial data shown below were mainly obtained using the non-inactivated protocol only. Kd values are shown for various compounds of the invention in Table 4 measured at 1 μM for the drug of interest except for compound 18 which was measured at 200 nM.

[2] = target: T2, human α1G T-type channels (Homo sapiens, UniProt O43497); test: as above; format: cell-based; conditions: HEK cells stably expressing human α1G; measured at 1 μM drug; mainly non-inactivated protocol
T2 construct: expressed in transfected cells; host or cells: HEK 293
Description: as §1, §2, §3, §4

T2 sequence (O43497 whole entry): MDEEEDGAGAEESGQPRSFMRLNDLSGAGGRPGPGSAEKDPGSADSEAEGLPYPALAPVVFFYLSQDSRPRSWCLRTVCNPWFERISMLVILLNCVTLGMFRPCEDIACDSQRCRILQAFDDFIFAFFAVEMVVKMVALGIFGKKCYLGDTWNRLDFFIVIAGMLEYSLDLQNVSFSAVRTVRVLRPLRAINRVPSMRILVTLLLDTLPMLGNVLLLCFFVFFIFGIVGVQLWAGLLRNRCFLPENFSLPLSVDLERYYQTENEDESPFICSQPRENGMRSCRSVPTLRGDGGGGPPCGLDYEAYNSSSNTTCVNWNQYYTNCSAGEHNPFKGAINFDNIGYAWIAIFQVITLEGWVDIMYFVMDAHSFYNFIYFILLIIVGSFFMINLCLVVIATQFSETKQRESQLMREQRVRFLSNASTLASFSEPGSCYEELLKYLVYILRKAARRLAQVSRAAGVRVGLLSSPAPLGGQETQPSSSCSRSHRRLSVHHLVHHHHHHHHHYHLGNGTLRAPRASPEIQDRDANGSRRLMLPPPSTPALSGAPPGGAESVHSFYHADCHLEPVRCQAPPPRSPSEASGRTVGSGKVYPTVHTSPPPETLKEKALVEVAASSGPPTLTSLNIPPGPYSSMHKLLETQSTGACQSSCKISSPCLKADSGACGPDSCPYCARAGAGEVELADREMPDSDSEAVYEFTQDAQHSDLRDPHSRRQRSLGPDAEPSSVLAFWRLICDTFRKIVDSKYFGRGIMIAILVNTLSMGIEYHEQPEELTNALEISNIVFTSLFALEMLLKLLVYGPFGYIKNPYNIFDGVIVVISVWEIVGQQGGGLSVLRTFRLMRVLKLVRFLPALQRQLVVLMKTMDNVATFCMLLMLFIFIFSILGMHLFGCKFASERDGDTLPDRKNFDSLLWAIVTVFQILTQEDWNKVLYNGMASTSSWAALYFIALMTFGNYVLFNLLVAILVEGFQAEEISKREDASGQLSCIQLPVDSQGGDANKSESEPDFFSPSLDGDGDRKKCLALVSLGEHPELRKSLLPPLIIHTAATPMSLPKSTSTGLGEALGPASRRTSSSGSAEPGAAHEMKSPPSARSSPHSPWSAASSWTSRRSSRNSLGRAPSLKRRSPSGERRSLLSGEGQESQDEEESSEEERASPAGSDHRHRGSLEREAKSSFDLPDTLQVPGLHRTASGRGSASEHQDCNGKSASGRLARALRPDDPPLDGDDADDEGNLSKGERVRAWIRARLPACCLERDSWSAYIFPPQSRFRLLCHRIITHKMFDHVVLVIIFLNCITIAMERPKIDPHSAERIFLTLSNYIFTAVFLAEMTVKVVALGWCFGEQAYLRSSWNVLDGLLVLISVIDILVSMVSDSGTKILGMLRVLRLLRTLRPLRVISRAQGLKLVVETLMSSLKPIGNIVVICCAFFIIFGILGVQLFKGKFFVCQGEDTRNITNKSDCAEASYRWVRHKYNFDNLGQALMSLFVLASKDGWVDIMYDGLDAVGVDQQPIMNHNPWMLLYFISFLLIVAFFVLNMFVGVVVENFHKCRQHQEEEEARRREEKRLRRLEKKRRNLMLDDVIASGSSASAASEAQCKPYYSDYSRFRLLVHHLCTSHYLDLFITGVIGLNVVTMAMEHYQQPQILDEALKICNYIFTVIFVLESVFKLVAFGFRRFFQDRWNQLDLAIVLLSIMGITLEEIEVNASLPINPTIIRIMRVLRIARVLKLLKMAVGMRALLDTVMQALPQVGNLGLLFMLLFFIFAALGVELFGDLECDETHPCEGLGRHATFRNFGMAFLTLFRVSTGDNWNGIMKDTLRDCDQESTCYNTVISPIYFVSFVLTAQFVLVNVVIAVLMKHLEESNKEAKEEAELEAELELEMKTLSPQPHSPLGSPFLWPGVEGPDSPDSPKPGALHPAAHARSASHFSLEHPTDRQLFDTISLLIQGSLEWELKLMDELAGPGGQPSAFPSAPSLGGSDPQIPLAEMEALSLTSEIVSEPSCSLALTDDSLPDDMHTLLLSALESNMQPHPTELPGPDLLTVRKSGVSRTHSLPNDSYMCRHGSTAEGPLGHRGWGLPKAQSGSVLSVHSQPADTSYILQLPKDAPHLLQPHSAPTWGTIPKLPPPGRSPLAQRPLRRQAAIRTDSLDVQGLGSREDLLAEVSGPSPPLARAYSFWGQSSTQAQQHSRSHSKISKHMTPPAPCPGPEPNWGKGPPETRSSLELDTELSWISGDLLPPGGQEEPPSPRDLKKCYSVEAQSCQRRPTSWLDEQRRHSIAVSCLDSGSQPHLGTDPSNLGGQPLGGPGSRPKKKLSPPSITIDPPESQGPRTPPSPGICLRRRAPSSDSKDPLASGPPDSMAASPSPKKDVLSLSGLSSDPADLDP
T1 sequence (O95180 whole entry): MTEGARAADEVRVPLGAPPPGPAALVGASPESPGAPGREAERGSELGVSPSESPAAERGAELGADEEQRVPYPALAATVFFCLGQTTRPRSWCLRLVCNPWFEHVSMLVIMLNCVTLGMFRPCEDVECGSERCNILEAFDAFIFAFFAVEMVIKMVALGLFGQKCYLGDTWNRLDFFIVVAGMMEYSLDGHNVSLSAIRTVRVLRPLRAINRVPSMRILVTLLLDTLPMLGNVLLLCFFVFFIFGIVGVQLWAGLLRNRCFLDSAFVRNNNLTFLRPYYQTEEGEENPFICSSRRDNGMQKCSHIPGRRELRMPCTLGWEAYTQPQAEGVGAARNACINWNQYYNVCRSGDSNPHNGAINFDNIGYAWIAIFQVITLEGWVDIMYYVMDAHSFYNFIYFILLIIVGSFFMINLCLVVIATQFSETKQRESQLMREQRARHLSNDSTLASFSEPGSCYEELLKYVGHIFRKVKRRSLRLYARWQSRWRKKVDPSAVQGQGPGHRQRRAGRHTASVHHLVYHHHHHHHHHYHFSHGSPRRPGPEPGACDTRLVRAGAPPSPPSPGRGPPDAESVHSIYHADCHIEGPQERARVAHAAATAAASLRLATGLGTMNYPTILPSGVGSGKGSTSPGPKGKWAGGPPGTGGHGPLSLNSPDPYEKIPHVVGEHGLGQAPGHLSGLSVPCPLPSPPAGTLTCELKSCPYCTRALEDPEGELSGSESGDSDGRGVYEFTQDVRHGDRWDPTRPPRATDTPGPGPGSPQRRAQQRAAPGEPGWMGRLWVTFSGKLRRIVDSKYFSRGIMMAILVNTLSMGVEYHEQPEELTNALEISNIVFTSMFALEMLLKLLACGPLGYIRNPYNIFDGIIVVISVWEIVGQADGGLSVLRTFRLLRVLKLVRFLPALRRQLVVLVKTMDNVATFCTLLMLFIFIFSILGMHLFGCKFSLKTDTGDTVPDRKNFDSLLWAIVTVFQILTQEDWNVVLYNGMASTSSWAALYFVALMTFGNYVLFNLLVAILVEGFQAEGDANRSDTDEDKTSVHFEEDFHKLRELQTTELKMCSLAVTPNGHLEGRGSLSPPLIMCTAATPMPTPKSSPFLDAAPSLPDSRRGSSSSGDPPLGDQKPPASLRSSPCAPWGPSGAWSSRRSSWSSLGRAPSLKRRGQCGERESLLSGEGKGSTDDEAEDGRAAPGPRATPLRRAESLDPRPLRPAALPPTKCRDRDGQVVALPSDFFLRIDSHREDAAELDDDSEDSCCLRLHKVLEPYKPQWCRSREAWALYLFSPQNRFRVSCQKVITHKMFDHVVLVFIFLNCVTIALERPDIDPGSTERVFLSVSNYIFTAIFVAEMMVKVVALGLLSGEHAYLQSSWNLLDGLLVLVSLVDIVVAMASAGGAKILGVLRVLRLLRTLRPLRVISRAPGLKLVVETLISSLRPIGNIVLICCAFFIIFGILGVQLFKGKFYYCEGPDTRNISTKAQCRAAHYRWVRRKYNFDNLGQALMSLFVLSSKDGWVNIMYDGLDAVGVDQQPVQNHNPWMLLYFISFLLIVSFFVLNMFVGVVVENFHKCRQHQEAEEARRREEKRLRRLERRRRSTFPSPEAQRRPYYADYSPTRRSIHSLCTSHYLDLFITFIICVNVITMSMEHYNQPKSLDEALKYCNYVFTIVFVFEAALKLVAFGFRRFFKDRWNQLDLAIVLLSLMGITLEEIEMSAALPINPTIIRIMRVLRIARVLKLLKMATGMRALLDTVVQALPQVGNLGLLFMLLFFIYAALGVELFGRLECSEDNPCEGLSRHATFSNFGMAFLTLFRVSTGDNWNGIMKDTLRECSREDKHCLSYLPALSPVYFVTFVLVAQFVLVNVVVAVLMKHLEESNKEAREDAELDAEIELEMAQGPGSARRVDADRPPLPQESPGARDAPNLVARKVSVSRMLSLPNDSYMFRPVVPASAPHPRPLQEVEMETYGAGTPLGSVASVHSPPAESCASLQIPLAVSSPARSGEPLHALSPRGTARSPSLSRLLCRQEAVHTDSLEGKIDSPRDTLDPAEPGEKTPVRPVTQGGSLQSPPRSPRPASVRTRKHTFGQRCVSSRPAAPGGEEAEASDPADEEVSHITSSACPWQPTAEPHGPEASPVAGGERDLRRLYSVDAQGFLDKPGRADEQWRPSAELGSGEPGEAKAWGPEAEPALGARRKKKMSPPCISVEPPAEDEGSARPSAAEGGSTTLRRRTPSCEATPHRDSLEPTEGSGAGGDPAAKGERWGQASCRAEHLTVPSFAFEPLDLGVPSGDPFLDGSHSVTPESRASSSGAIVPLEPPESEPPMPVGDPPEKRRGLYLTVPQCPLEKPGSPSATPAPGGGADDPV

Row | SMILES | Kd [1] [nM] | Kd [2] [nM]
1 | CCN(CC)C(=O)Cn1cnc2sc(C(=O)N3CCN(c4ccc(Cl)c(C(F)(F)F)c4)CC3)c(C)c2c1=O [Compound 8, 2-(6-(4-(4-chloro-3-(trifluoromethyl)phenyl)piperazine-1-carbonyl)-5-methyl-4-oxothieno[2,3-d]pyrimidin-3(4H)-yl)-N,N-diethylacetamide] | 540 | 450
2 | Cc1c(C(=O)N2CCN(c3cccc(C(F)(F)F)c3)CC2)sc2ncn(CC(=O)NC(C)(C)C)c(=O)c12 [Compound 12, N-tert-butyl-2-(5-methyl-4-oxo-6-(4-(3-(trifluoromethyl)phenyl)piperazine-1-carbonyl)thieno[2,3-d]pyrimidin-3(4H)-yl)acetamide] | 1060 | 1960
3 | Cc1c(C(=O)N2CCN(c3ccc(Cl)cc3)CC2)sc2ncn(CC(=O)NC(C)(C)C)c(=O)c12 [Compound 15, N-tert-butyl-2-(6-(4-(4-chlorophenyl)piperazine-1-carbonyl)-5-methyl-4-oxothieno[2,3-d]pyrimidin-3(4H)-yl)acetamide] | 870 | 2370
4 | Cc1c(C(=O)N2CCN(c3cccc(Cl)c3)CC2)sc2ncn(CC(=O)NC(C)(C)C)c(=O)c12 [Compound 16, N-tert-butyl-2-(6-(4-(3-chlorophenyl)piperazine-1-carbonyl)-5-methyl-4-oxothieno[2,3-d]pyrimidin-3(4H)-yl)acetamide] | 630 | 1370
5 | Cc1c(C(=O)N2CCN(c3cc(C(F)(F)F)cc(C(F)(F)F)c3)CC2)sc2ncn(CC(=O)NC(C)(C)C)c(=O)c12 [Compound 17, 2-(6-(4-(3,5-bis(trifluoromethyl)phenyl)piperazine-1-carbonyl)-5-methyl-4-oxothieno[2,3-d]pyrimidin-3(4H)-yl)-N-tert-butylacetamide] | 500 | 510

Next, values leading:

Row | Kd [1] [nM] | Kd [2] [nM] | SMILES
6 | 430 | 1360 | Cc1c(C(=O)N2CCN(c3ccc(F)cc3)CC2)sc2ncn(CC(=O)NC3CCCCC3)c(=O)c12 [Compound 22, N-cyclohexyl-2-(6-(4-(4-fluorophenyl)piperazine-1-carbonyl)-5-methyl-4-oxothieno[2,3-d]pyrimidin-3(4H)-yl)acetamide]
7 | 750 | 1720 | Cc1c(C(=O)N2CCN(c3ccccc3F)CC2)sc2ncn(CC(=O)NC3CCCC3)c(=O)c12 [Compound 36, N-cyclopentyl-2-(6-(4-(2-fluorophenyl)piperazine-1-carbonyl)-5-methyl-4-oxothieno[2,3-d]pyrimidin-3(4H)-yl)acetamide]
8 | 400 | 620 | Cc1c(C(=O)N2CCN(c3cccc(Cl)c3)CC2)sc2ncn(CC(=O)N3CCC(F)(F)C3)c(=O)c12 [Compound 78, 6-(4-(3-chlorophenyl)-piperazine-1-carbonyl)-3-(2-(3,3-difluoropyrrolidin-1-yl)-2-oxoethyl)-5-methylthieno[2,3-d]pyrimidin-4(3H)-one]
9 | 720 | 1680 | Cc1c(C(=O)N2CCN(c3ccccc3F)CC2)sc2ncn(CC(=O)N3CCCCC3)c(=O)c12 [Compound 81, 6-(4-(2-fluorophenyl)piperazine-1-carbonyl)-5-methyl-3-(2-oxo-2-(piperidin-1-yl)ethyl)thieno[2,3-d]pyrimidin-4(3H)-one]
10 | 420 | 630 | Cc1c(C(=O)N2CCN(c3ccccc3F)CC2)sc2ncn(CC(=O)N3CCC(C(F)(F)F)CC3)c(=O)c12 [Compound 89, 6-(4-(2-fluorophenyl)piperazine-1-carbonyl)-5-methyl-3-(2-oxo-2-((4-trifluoromethyl)piperidin-1-yl)ethyl) thieno[2,3-d]pyrimidin-4(3H)-one]
11 | 630 | 1150 | CCN(CC(F)(F)F)C(=O)Cn1cnc2sc(C(=O)N3CCN(c4cccc(Cl)c4)CC3)c(C)c2c1=O [Compound 127, 2-(6-(4-(3-chlorophenyl)piperazine-1-carbonyl)-5-methyl-4-oxothieno[2,3-d]pyrimidin-3(4H)-yl)-N-ethyl-N-(2,2,2-trifluoroethyl)acetamide]
